Measurements as given in article PMC3293801, “Differential Contribution of the Repeats to Heparin Binding of HBHA, a Major Adhesin of Mycobacterium tuberculosis” (PLoS ONE, 2012).

Target: T1, MalE-Ct (Mycobacterium tuberculosis, UniProt P9WIP9)
T1 construct: gene hbhA; pMAL+3R1+2R2, E. coli B834; 15N-labelled; MBP kept
Format: binding
Conditions: 20 mM phosphate pH 6.8, 0.15 M NaCl, 20°C, 900 MHz, 60 µM protein; apparent, single site

T1 sequence (P9WIP9 161-199): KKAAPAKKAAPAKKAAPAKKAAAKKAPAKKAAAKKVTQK

Substance | Kd [µM]
dp10 heparin-derived oligosaccharide | 79.4 ± 23
dp14 heparin-derived oligosaccharide | 58.8 ± 14
